Measurements published in patent publication US20230310388A1, “Methods and Compositions for Treating Fungal Infections” (Neoculi Pty Ltd, priority 2020, published 2023).
Converted amounts (≈) assume the structure as drawn. “And” between values parts separate entries of the source, which are not always exact repeats. Equal values may be shown once.

How the values were obtained:
Assay type in all cases: cell-based
Cryptococcus neoformans = assay: CLSI broth microdilution MIC (Example 4)
Experimental: (§1) Antifungal minimum inhibitory concentration (MIC) testing was undertaken as recommended by the CLSI. Briefly, antifungal susceptibility tests were performed for amphotericin B, robenidine (NCL812) and robenidine (NCL) analogs (NCL004, NCL020, NCL023, NCL024, NCL062, NCL094, NCL097, NCL110, NCL113, NCL114, NCL115, NCL135, NCL139, NCL180, NCL181, NCL195, NCL219, NCL220, NCL228, NCL247, NCL250, NCL259, NCL260, NCL263, NCL265, NCL269, NCL274) by standard broth microdilution method (CLSI) in RPMI 1640. Various concentrations (ranging from high to low) of the selected compounds were prepared in RPMI 1640 medium by double dilution in 96-well microtitre plates. Each well contained an inoculum of approximately 2×10^3 cells/mL. The wells without addition of drugs served as negative (no inoculum) and positive (inoculum only) growth controls. Microtitre plates were incubated at 35° C. for 24-48 hours. […] Antifungal MICs were determined for each isolate in duplicate; if the values obtained were different, the MIC test was repeated a third time.

Candida albicans = assay: CLSI broth microdilution MIC (Example 4)
Experimental: as §1

[1] = test system: Candida albicans ATCC14053; assay: Broth micro-dilution screen at 16 μg/mL and MIC (Example 9); conditions: for Screen at 16 μg/mL: single concentration 16 μg/mL, Growth or No growth of C. albicans ATCC14053; for MIC: C. albicans ATCC14053, test range 0.25-64 μg/mL, duplicate
Experimental: The antifungal activity of 201 NCL analogs against Candida albicans ATCC14053 in vitro was investigated. A broth micro-dilution method was used, according to CLSI guidelines as described. NCL analogs were dissolved in DMSO and originally screened at a single concentration of 16 μg/mL.

| SMILES | Screen at 16 μg/mL [1] | further results |
| --- | --- | --- |
| Cl.N=C(NN=Cc1cc(Cl)cc(Cl)c1)NN=Cc1cc(Cl)cc(Cl)c1 [NCL114] | Growth | MIC at 24-48 hours (Cryptococcus neoformans; Cryptococcus neoformans SA1): >32 µg/mL; MIC at 24-48 hours (Cryptococcus neoformans; Cryptococcus neoformans SA2): >32 µg/mL; MIC at 24-48 hours (Candida albicans; Candida albicans ATCC 90028): >32 µg/mL; MIC at 24-48 hours (Candida albicans; Candida albicans SA3): >32 µg/mL |
| COc1cc(Br)c(C=NNC(=N)NN=Cc2cc(OC)c(OC)cc2Br)cc1OC.Cl [NCL135] | Growth | MIC at 24-48 hours (Cryptococcus neoformans; Cryptococcus neoformans SA1): >32 µg/mL; MIC at 24-48 hours (Cryptococcus neoformans; Cryptococcus neoformans SA2): >32 µg/mL; MIC at 24-48 hours (Candida albicans; Candida albicans ATCC 90028): >32 µg/mL; MIC at 24-48 hours (Candida albicans; Candida albicans SA3): >32 µg/mL |
| OCC(=NNc1cc(NN=C(CO)c2ccc(Cl)cc2)ncn1)c1ccc(Cl)cc1 [NCL180] | Growth | MIC at 24-48 hours (Cryptococcus neoformans; Cryptococcus neoformans SA1): >32 µg/mL; MIC at 24-48 hours (Cryptococcus neoformans; Cryptococcus neoformans SA2): >32 µg/mL; MIC at 24-48 hours (Candida albicans; Candida albicans ATCC 90028): >32 µg/mL; MIC at 24-48 hours (Candida albicans; Candida albicans SA3): >32 µg/mL |
| Nc1nc(N/N=C/c2cc(O)c(O)c(O)c2)cc(N/N=C/c2cc(O)c(O)c(O)c2)n1 [NCL247] | No growth | MIC at 24-48 hours (Cryptococcus neoformans; Cryptococcus neoformans SA1): >32 µg/mL; MIC at 24-48 hours (Cryptococcus neoformans; Cryptococcus neoformans SA2): >32 µg/mL; MIC at 24-48 hours (Candida albicans; Candida albicans ATCC 90028): >32 µg/mL; MIC at 24-48 hours (Candida albicans; Candida albicans SA3): >32 µg/mL; MIC [1]: 2 µg/mL and 4 µg/mL |
| Clc1ccc(C=NNc2cc(NN=Cc3ccc(Cl)cc3)ncn2)cc1 [NCL181] | Growth | MIC at 24-48 hours (Cryptococcus neoformans; Cryptococcus neoformans SA1): >32 µg/mL; MIC at 24-48 hours (Cryptococcus neoformans; Cryptococcus neoformans SA2): >32 µg/mL; MIC at 24-48 hours (Candida albicans; Candida albicans ATCC 90028): >32 µg/mL; MIC at 24-48 hours (Candida albicans; Candida albicans SA3): >32 µg/mL |
| Cl.N=C(NN=CC1CCCCC1)NN=CC1CCCCC1 [NCL094] | Growth | MIC at 24-48 hours (Cryptococcus neoformans; Cryptococcus neoformans SA1): >32 µg/mL; MIC at 24-48 hours (Cryptococcus neoformans; Cryptococcus neoformans SA2): >32 µg/mL; MIC at 24-48 hours (Candida albicans; Candida albicans ATCC 90028): >32 µg/mL; MIC at 24-48 hours (Candida albicans; Candida albicans SA3): >32 µg/mL |
| Cl.N=C(NN=Cc1ccccc1Cl)NN=Cc1ccccc1Cl [NCL020] | Growth | MIC at 24-48 hours (Cryptococcus neoformans; Cryptococcus neoformans SA1): >32 µg/mL; MIC at 24-48 hours (Cryptococcus neoformans; Cryptococcus neoformans SA2): >32 µg/mL; MIC at 24-48 hours (Candida albicans; Candida albicans ATCC 90028): >32 µg/mL; MIC at 24-48 hours (Candida albicans; Candida albicans SA3): >32 µg/mL |
| Clc1ccc(/C=N/CC/N=C/c2ccc(Cl)cc2)cc1 [NCL250] | Growth | MIC at 24-48 hours (Cryptococcus neoformans; Cryptococcus neoformans SA1): >32 µg/mL; MIC at 24-48 hours (Cryptococcus neoformans; Cryptococcus neoformans SA2): >32 µg/mL; MIC at 24-48 hours (Candida albicans; Candida albicans ATCC 90028): >32 µg/mL; MIC at 24-48 hours (Candida albicans; Candida albicans SA3): >32 µg/mL |
| Cl.N=C(NN=Cc1cnc2ccccc2c1)NN=Cc1cnc2ccccc2c1 [NCL139] | No growth | MIC at 24-48 hours (Cryptococcus neoformans; Cryptococcus neoformans SA1): >32 µg/mL; MIC at 24-48 hours (Cryptococcus neoformans; Cryptococcus neoformans SA2): >32 µg/mL; MIC at 24-48 hours (Candida albicans; Candida albicans ATCC 90028): >32 µg/mL; MIC at 24-48 hours (Candida albicans; Candida albicans SA3): >32 µg/mL; MIC [1]: <0.5 µg/mL |
| Clc1ccc(CNCCNCc2ccc(Cl)cc2)cc1 [NCL260] | Growth | MIC at 24-48 hours (Cryptococcus neoformans; Cryptococcus neoformans SA1): >32 µg/mL; MIC at 24-48 hours (Cryptococcus neoformans; Cryptococcus neoformans SA2): >32 µg/mL; MIC at 24-48 hours (Candida albicans; Candida albicans ATCC 90028): >32 µg/mL; MIC at 24-48 hours (Candida albicans; Candida albicans SA3): >32 µg/mL |
| CC(=NNC(=N)N)c1c[nH]c2ccccc12 [NCL269] | Growth | MIC at 24-48 hours (Cryptococcus neoformans; Cryptococcus neoformans SA1): >32 µg/mL; MIC at 24-48 hours (Cryptococcus neoformans; Cryptococcus neoformans SA2): >32 µg/mL; MIC at 24-48 hours (Candida albicans; Candida albicans ATCC 90028): >32 µg/mL; MIC at 24-48 hours (Candida albicans; Candida albicans SA3): >32 µg/mL |
| CCCCCC(=NNC(=N)NN=C(CCCCC)c1ccc(Cl)cc1)c1ccc(Cl)cc1 [NCL271] | No growth | MIC [1]: 1 µg/mL (≈ 2.11 µM) |
| Cl.N=C(NN=Cc1ccc(OC(F)(F)F)cc1)NN=Cc1ccc(OC(F)(F)F)cc1 [NCL160] | No growth | MIC [1]: 1 µg/mL and 2 µg/mL |
| COc1cc(C=NNC(=N)NN=Cc2ccc(O)c(OC)c2)ccc1O.Cl [NCL117] | Growth | – |
| CC(=O)Nc1ccc(C=NNC(=N)NN=Cc2ccc(NC(C)=O)cc2)cc1.Cl [NCL119] | Growth | – |
| O=C(NN=Cc1ccccc1C(F)(F)F)NN=Cc1ccccc1C(F)(F)F [NCL013] | Growth | – |
| Cl.N=C(NN=Cc1ccc2nsnc2c1)NN=Cc1ccc2nsnc2c1 [NCL277] | Growth | – |
| CCC(=NNC(=N)NN=C(CC)c1ccc(Cl)cc1)c1ccc(Cl)cc1.Cl [NCL153] | Growth | – |
| CC(=NNC(=N)NN=C(C)c1ccccn1)c1ccccn1.Cl [NCL172] | Growth | – |
| COc1cc(C=NNC(=N)NN=Cc2cc(Br)c(OC)c(OC)c2)cc(Br)c1OC.Cl [NCL130] | Growth | – |

| SMILES | Screen at 16 μg/mL [1] | further results |
| --- | --- | --- |
| Cl.N=C(NN=Cc1ccc(Cl)cc1F)NN=Cc1ccc(Cl)cc1F [NCL216] | Growth | MIC [1]: >64 µg/mL |
| Cl.N=C(NN=Cc1ccccc1C(F)(F)F)NN=Cc1ccccc1C(F)(F)F [NCL036] | Growth | – |
| Nc1nc(NN=Cc2ccc(-c3ccccc3)cc2)cc(NN=Cc2ccc(-c3ccccc3)cc2)n1 [NCL255] | Growth | – |
| CC(=NNC(=N)N)c1ccc(C(C)(C)C)cc1 [NCL231] | Growth | – |
| N=C(N)NN=C(CCC1CCCC1)c1ccc(Cl)cc1 [NCL266] | No growth | MIC [1]: 4 µg/mL (≈ 13.7 µM) |
| CC(C)(C)c1ccc(C=NNc2cc(NN=Cc3ccc(C(C)(C)C)cc3)nc(N)n2)cc1.Cl.Cl [NCL198] | Growth | – |
| CC(C)(C)c1ccc(C=NNC(=N)N)cc1 [NCL232] | Growth | – |
| CC(C)c1ccc(C=NNC(=N)NN=Cc2ccc(C(C)C)cc2)cc1.Cl [NCL120] | Growth | – |
| NC(=NN=Cc1ccc(Cl)cc1)N(N=Cc1ccc(Cl)cc1)C(=O)NCc1ccco1 [NCL229] | Growth | – |
| Nc1nc(NN=Cc2ccncc2)cc(NN=Cc2ccncc2)n1 [NCL241] | Growth | – |
| Cl.N=C(NN=C1C(=O)Nc2ccccc21)NN=C1C(=O)Nc2ccccc21 [NCL163] | Growth | – |
| Cl.N=C(NN=Cc1c(O)ccc2ccccc12)NN=Cc1c(O)ccc2ccccc12 [NCL124] | Growth | – |
| Cl.N=C(NN=Cc1cccc(C(F)(F)F)c1)NN=Cc1cccc(C(F)(F)F)c1 [NCL037] | Growth | – |
| Cc1ccc(C=NNc2nc(N)nc(NN=Cc3ccc(C)cc3)n2)cc1 [NCL206] | Growth | – |
| Cl.N=C(NN=CC1=C(Cl)c2cc(F)ccc2OC1)NN=CC1=C(Cl)c2cc(F)ccc2OC1 [NCL132] | Growth | – |
| COc1ccc(C=NNc2cc(NN=Cc3ccc(OC)cc3)nc(N)n2)cc1 [NCL230] | Growth | – |
| Cl.N=C(NN=Cc1ccc(O)c(O)c1O)NN=Cc1ccc(O)c(O)c1O [NCL105] | No growth | MIC [1]: 2 µg/mL and 4 µg/mL |
| Nc1nc(NN=CC=Cc2ccccc2)cc(NN=CC=Cc2ccccc2)n1 [NCL246] | Growth | – |
| CC(=NNc1cc(NN=C(C)c2ccc(Cl)cc2)ncn1)c1ccc(Cl)cc1.Cl [NCL185] | Growth | – |
| Cl.N=C(NN=Cc1ccc(F)c(F)c1)NN=Cc1ccc(F)c(F)c1 [NCL123] | No growth | MIC [1]: 1 µg/mL |

| SMILES | Screen at 16 μg/mL [1] | further results |
| --- | --- | --- |
| CCCC(=NNC(=N)NN=C(CCC)c1ccc(Cl)cc1)c1ccc(Cl)cc1.Cl [NCL156] | Growth | – |
| CN(C)c1ccc(/C=N/NC(=N)N)cc1 [NCL253] | Growth | – |
| Cl.N=C(N)NN=C(CNN)c1ccc(Cl)cc1 [NCL190] | Growth | – |
| Cl.N=C(NN=Cc1ccc(SC(F)(F)F)cc1)NN=Cc1ccc(SC(F)(F)F)cc1 [NCL166] | Growth | – |
| CCC(=NNC(=N)N)c1ccc(Cl)cc1 [NCL234] | Growth | – |
| Cl.N#Cc1cccc(C=NNC(=N)N)c1 [NCL033] | Growth | – |
| Nc1nc(NN=CC2CCCCC2)nc(NN=CC2CCCCC2)n1 [NCL213] | Growth | – |
| Cl.N=C(NN=Cc1ccc(F)cc1)NN=Cc1ccc(F)cc1 [NCL021] | No growth | MIC [1]: 0.5 µg/mL and 1 µg/mL |
| Cl.N=C(N)NN=Cc1ccccc1F [NCL016] | Growth | – |
| Cl.N=C(N)NN=Cc1ccccc1C(F)(F)F [NCL042] | Growth | – |
| Cc1cccc(C=NNC(=N)NN=Cc2cccc(C)c2)c1.Cl [NCL040] | No growth | MIC [1]: 8 µg/mL and 16 µg/mL |
| Nc1nc(NN=Cc2ccc(Br)cc2)cc(NN=Cc2ccc(Br)cc2)n1 [NCL193] | Growth | – |
| Cl.N=C(NN=Cc1c(Cl)cccc1Cl)NN=Cc1c(Cl)cccc1Cl [NCL137] | Growth | – |
| NC(=NN=Cc1ccc(Cl)cc1)N(N=Cc1ccc(Cl)cc1)C(=O)NCc1ccccc1 [NCL227] | Growth | MIC [1]: >64 µg/mL |
| COc1cc(C=NNC(=N)NN=Cc2cc(O)c(O)c(OC)c2)cc(O)c1O.Cl [NCL106] | Growth | – |
| Nc1nc(NN=Cc2cccc(O)c2O)cc(NN=Cc2cccc(O)c2O)n1.O=Cc1cccc(O)c1O [NCL244] | Growth | MIC [1]: >64 µg/mL |
| Cc1ccc(/C=N/NC(=N)N)cc1.Cl [NCL044] | Growth | – |
| N=C(N)NN=Cc1cccc2ccccc12 [NCL248] | Growth | – |
| CC(C)(C)c1ccc(/C=N/NC(=N)N/N=C/c2ccc(C(C)(C)C)cc2)cc1.Cl [NCL099] | Growth | – |
| Cl.Clc1ccc(/C=N/Nc2cc(N/N=C/c3ccc(Cl)cc3)ncn2)cc1 [NCL187] | Growth | – |
